Measurements from patent US8685970B2, “Quinolines and related analogs as sirtuin modulators” (GlaxoSmithKline, LLC, priority 2008, dated 2014).

Target: T1, SIRT1 (Homo sapiens, UniProt Q96EB6)
T1 sequence (Q96EB6 1-747): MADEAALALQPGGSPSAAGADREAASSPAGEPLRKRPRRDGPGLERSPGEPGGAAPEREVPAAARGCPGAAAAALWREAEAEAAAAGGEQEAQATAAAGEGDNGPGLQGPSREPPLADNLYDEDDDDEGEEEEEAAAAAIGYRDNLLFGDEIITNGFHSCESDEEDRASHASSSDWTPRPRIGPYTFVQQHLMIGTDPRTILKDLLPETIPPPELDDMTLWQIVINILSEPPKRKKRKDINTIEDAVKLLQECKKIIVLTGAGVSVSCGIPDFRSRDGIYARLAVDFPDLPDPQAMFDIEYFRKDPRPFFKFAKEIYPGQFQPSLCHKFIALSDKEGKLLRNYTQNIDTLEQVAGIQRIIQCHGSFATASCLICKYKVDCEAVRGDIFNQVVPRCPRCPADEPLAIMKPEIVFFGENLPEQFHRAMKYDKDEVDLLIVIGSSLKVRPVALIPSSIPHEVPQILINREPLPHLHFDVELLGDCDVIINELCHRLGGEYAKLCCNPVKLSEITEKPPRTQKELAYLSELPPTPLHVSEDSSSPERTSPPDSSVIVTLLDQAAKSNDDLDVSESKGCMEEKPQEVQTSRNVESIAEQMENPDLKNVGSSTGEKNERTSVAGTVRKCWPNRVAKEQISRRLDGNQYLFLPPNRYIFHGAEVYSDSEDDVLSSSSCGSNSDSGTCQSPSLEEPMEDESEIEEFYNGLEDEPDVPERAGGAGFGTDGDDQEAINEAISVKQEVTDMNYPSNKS
Test: Mass spectrometry based SIRT1 deacetylation assay (activation)
Assay type: biochemical
Settings: 10 nM SIRT1, 0.5 μM peptide substrate, 120 μM βNAD+, 25 min at 25° C.
From the text: A mass spectrometry based assay was used to identify modulators of SIRT1 activity. The mass spectrometry based assay utilizes a peptide having 20 amino acid residues as follows: Ac-EE-K (biotin)-GQSTSSHSK (Ac)N1eSTEG-K(5TMR)-EE-NH2 (SEQ ID NO: 1) wherein K(Ac) is an acetylated lysine residue and Nle is a norleucine. The peptide is labeled with the fluorophore 5TMR (excitation 540 nm/emission 580 nm) at the C-terminus. The sequence of the peptide substrate is based on p53 with several modifications. In addition, the methionine residue naturally present in the sequence was replaced with the norleucine because the methionine may be susceptible to oxidation during synthesis and purification.
The mass spectrometry assay is conducted as follows: 0.5 μM peptide substrate and 120 μM βNAD^+ is incubated with 10 nM SIRT1 for 25 minutes at 25° C. in a reaction buffer (50 mM Tris-acetate pH 8, 137 mM NaCl, 2.7 mM KCl, 1 mM MgCl2, 5 mM DTT, 0.05% BSA). Test compounds may be added to the reaction as described above. The SirT1 gene is cloned into a T7-promoter containing vector and transformed into BL21(DE3). After the 25 minute incubation with SIRT1, 10 μL of 10% formic acid is added to stop the reaction. Reactions are sealed and frozen for later mass spec analysis. Determination of the mass of the substrate peptide allows for precise determination of the degree of acetylation (i.e. starting material) as compared to deacetylated peptide (product).
A control for inhibition of sirtuin activity is conducted by adding 1 μL of 500 mM nicotinamide as a negative control at the start of the reaction (e.g., permits determination of maximum sirtuin inhibition). A control for activation of sirtuin activity is conducted using 10 nM of sirtuin protein, with 1 μL of DMSO in place of compound, to determine the amount of deacetylation of the substrate at a given timepoint within the linear range of the assay. This timepoint is the same as that used for test compounds and, within the linear range, the endpoint represents a change in velocity.
For the above assay, SIRT1 protein was expressed and purified as follows. The SirT1 gene was cloned into a T7-promoter containing vector and transformed into BL21(DE3). The protein was expressed by induction with 1 mM IPTG as an N-terminal His-tag fusion protein at 18° C. overnight and harvested at 30,000×g. Cells were lysed with lysozyme in lysis buffer (50 mM Tris-HCl, 2 mM Tris[2-carboxyethyl]phosphine (TCEP), 10 μM ZnCl2, 200 mM NaCl) and further treated with sonication for 10 min for complete lysis. The protein was purified over a Ni-NTA column (Amersham) and fractions containing pure protein were pooled, concentrated and run over a sizing column (Sephadex S200 26/60 global). The peak containing soluble protein was collected and run on an Ion-exchange column (MonoQ). Gradient elution (200 mM-500 mM NaCl) yielded pure protein. This protein was concentrated and dialyzed against dialysis buffer (20 mM Tris-HCl, 2 mM TCEP) overnight. The protein was aliquoted and frozen at −80° C. until further use.
Sirtuin modulating compounds that activated SIRT1 were identified using the assay described above and are shown below in Table 1. The EC1.5 values represent the concentration of test compounds that result in 150% activation of SIRT1. The EC1.5 values for the activating compounds are represented by A (EC1.5<1.0 uM), B (EC1.5 1-25 uM), C (EC1.5>25 uM). The percent maximum fold activation is represented by A (Fold activation >200%) or B (Fold Activation <200%). “NT” indicates the compound was not tested in a particular assay.

Structure (SMILES)	% Fold Act. (percent maximum fold activation)	EC1.5 (concentration of test compound that results in 150% activation of SIRT1)
O=C(Nc1ccc(Cl)nc1)c1cccc2ccc(-c3cccc(C(F)(F)F)c3)nc12 [Compound 58]	B (Fold Activation <200%)	A (EC1.5<1.0 uM)
FC(F)(F)Oc1cccc(-c2ccc3cccc(NCc4ccccn4)c3n2)c1 [Compound 65]	–	C (EC1.5>25 uM)
O=C(NC1CN2CCC1CC2)c1cccc2ccc(-c3cccc(C(F)(F)F)c3)nc12 (centres unmarked) [Compound 88]	–	C (EC1.5>25 uM)
O=C(Nc1ccccn1)c1cccc2ccc(-c3ccccc3C(F)(F)F)nc12 [Compound 85]	B (Fold Activation <200%)	B (EC1.5 1-25 uM)
O=C(Nc1cccc2ccc(-c3ccccc3F)nc12)c1cscn1 [Compound 75]	A (Fold activation >200%)	B (EC1.5 1-25 uM)
O=C(Nc1ccncn1)c1cccc2ccc(-c3ccc(C(F)(F)F)cc3)nc12 [Compound 99]	–	C (EC1.5>25 uM)
FC(F)(F)Oc1cccc(-c2ccc3cccc(NCC4CCCC4)c3n2)c1 [Compound 141]	–	C (EC1.5>25 uM)
O=C(Nc1cccnc1)c1cccc2ncc(-c3cccc(OC(F)(F)F)c3)nc12 [Compound 126]	B (Fold Activation <200%)	B (EC1.5 1-25 uM)
O=C(Nc1ncnc2ccc(-c3cccc(C(F)(F)F)c3)nc12)c1ccc(CN2CCCC2)cc1 [Compound 312]	A (Fold activation >200%)	B (EC1.5 1-25 uM)
Cc1nc(NC(=O)c2cccc3ccc(-c4cccnc4)nc23)sc1C [Compound 226]	A (Fold activation >200%)	B (EC1.5 1-25 uM)
O=C(Nc1cccc2ccc(-c3cccc(OC(F)(F)F)c3)nc12)c1cnc2ccccc2n1 [Compound 23]	–	C (EC1.5>25 uM)
O=C(Nc1cccc(OC[C@H](O)CO)c1)c1cccc2ccc(-c3cccc(C(F)(F)F)c3)nc12 [Compound 217]	A (Fold activation >200%)	A (EC1.5<1.0 uM)
Cc1cc(-c2ccc3cccc(C(=O)Nc4ccncn4)c3n2)no1 [Compound 70]	–	C (EC1.5>25 uM)

Continued, values first:

% Fold Act. (percent maximum fold activation)	EC1.5 (concentration of test compound that results in 150% activation of SIRT1)	Structure (SMILES)
–	C (EC1.5>25 uM)	Cc1cnc(NC(=O)c2cccc3ccc(-c4cccnc4)nc23)s1 [Compound 225]
A (Fold activation >200%)	A (EC1.5<1.0 uM)	Cc1csc(NC(=O)c2cccc3ccc(-c4cccc(N5CCOCC5)c4)nc23)n1 [Compound 238]
A (Fold activation >200%)	A (EC1.5<1.0 uM)	O=C(Nc1ccc(CN2CCCC2)nc1)c1cccc2ccc(-c3cccc(C(F)(F)F)c3)nc12 [Compound 292]
A (Fold activation >200%)	A (EC1.5<1.0 uM)	O=C(Nc1nccs1)c1cccc2ccc(-c3cccc(N4CCOCC4)c3)nc12 [Compound 108]
A (Fold activation >200%)	A (EC1.5<1.0 uM)	O=C(Nc1ccnc(Cl)c1)c1cccc2ccc(-c3cccc(C(F)(F)F)c3)nc12 [Compound 60]
A (Fold activation >200%)	A (EC1.5<1.0 uM)	Cc1nc(NC(=O)c2cccc3ccc(-c4cccc(C(F)(F)F)c4)nc23)sc1C [Compound 52]
–	C (EC1.5>25 uM)	O=C(Nc1nccs1)c1cccc2cc(C(F)(F)F)c(-c3ccccc3)nc12 [Compound 192]
–	C (EC1.5>25 uM)	Cc1cnc(NC(=O)c2cccc3ccc(-c4ccnc(C(F)F)c4)nc23)s1 [Compound 307]
A (Fold activation >200%)	A (EC1.5<1.0 uM)	O=C(Nc1nccs1)c1cccc2ccc(-c3cccc(OC4CCNCC4)c3)nc12 [Compound 131]
A (Fold activation >200%)	B (EC1.5 1-25 uM)	O=C(Nc1cc[nH]n1)c1cccc2ccc(-c3cccc(C(F)(F)F)c3)nc12 [Compound 34]
A (Fold activation >200%)	A (EC1.5<1.0 uM)	O=C(Nc1nccs1)c1cccc2ccc(-c3ccnc(N4CCC4)c3)nc12 [Compound 179]
B (Fold Activation <200%)	A (EC1.5<1.0 uM)	O=C(Nc1cnccn1)c1cccc2ccc(-c3ccccc3)nc12 [Compound 15]
A (Fold activation >200%)	A (EC1.5<1.0 uM)	O=C(Nc1cccnc1)c1cccc2ccc(-c3cccc(C(F)F)c3)nc12 [Compound 260]
B (Fold Activation <200%)	A (EC1.5<1.0 uM)	O=C(Nc1ccccn1)c1cccc2ccc(-c3cccnc3)nc12 [Compound 182]
–	C (EC1.5>25 uM)	O=C(Nc1nccs1)c1cccc2ncc(-c3cccc(OC(F)(F)F)c3)nc12 [Compound 125]
A (Fold activation >200%)	B (EC1.5 1-25 uM)	O=C(Nc1nccs1)c1cccc2ccc(-c3ccccc3C(F)(F)F)nc12 [Compound 84]
–	C (EC1.5>25 uM)	O=C(Nc1nccs1)c1cccc2ncc(-c3ccccc3)nc12 [Compound 116]
A (Fold activation >200%)	A (EC1.5<1.0 uM)	O=C(Nc1nc(CN2CCCC2)cs1)c1cccc2ccc(-c3cccc(C(F)F)c3)nc12 [Compound 261]
A (Fold activation >200%)	A (EC1.5<1.0 uM)	O=C(Nc1cccc(CN2CCOCC2)n1)c1cccc2ccc(-c3cccnc3)nc12 [Compound 231]
